The values below come from patent US7432227B2, “6-alkyl or alkenyl-4-aminopicolinates and their use as herbicides” (Dow AgroSciences LLC, priority 2003, dated 2008).

In data set [1] the test system is Pigweed (redroot) (Amaranthus retroflexus). Kind of data set: Postemergence herbicidal activity, Pigweed (redroot). The note with it: visual score after 2 weeks, 0 = no injury, 100 = complete kill. It is filed as in vivo. The procedure: (§1) Seeds of the desired test plant species were planted in Grace-Sierra MetroMix® 306 planting mixture, which typically has a pH of 6.0 to 6.8 and an organic matter content of about 30 percent, in plastic pots with a surface area of 64 square centimeters. When required to ensure good germination and healthy plants, a fungicide treatment and/or other chemical or physical treatment was applied. The plants were grown for 7-21 days in a greenhouse with an approximate 15 hr photoperiod which was maintained at about 23-29° C. during the day and 22-28° C. during the night. Nutrients and water were added on a regular basis and supplemental lighting was provided with overhead metal halide 1000-Watt lamps as necessary. The plants were employed for testing when they reached the first or second true leaf stage. A weighed amount, determined by the highest rate to be tested, of each test compound was placed in a 20 mL glass vial and was dissolved in 4 mL of a 97:3 v/v (volume/volume) mixture of acetone and dimethyl sulfoxide (DMSO) to obtain concentrated stock solutions. […] The concentrated stock solutions obtained were diluted with an aqueous mixture containing acetone, water, isopropyl alcohol, DMSO, Atplus 411F crop oil concentrate, and Triton X-155 surfactant in a 48.5:39:10:1.5:1.0:0.02 v/v ratio to obtain spray solutions of known concentration. The solutions containing the highest concentration to be tested were prepared by diluting 2 mL aliquots of the stock solution with 13 mL of the mixture and lower concentrations were prepared by serial dilution of the stock solution. Approximately 1.5 mL aliquots of each solution of known concentration were sprayed evenly onto each of the test plant pots using a DeVilbiss atomizer driven by compressed air pressure of 2 to 4 psi (140 to 280 kilopascals) to obtain thorough coverage of each plant. Control plants were sprayed in the same manner with the aqueous mixture. In this test an application rate of 1 ppm results in the application of approximately 1 g/Ha. The treated plants and control plants were placed in a greenhouse as described above and watered by sub-irrigation to prevent wash-off of the test compounds. After 2 weeks the condition of the test plants as compared with that of the untreated plants was determined visually and scored on a scale of 0 to 100 percent where 0 corresponds to no injury and 100 corresponds to complete kill.

The subject of data set [2] is Cocklebur (Xanthium strumarium). Nature of the data set: Postemergence herbicidal activity, Cocklebur. The note with it: post-emergence, 336 h, rate 250 ppm, visual score after 2 weeks, 0 = no injury, 100 = complete kill, read-out: Post-emergent % control XANST. The format is in vivo. The method, then: as §1
In data set [3] the test system is Lambsquarter (Chenopodium album). Kind of data set: Preemergence herbicidal activity, Lambsquarter. The format is in vivo. The note with it: pre-emergence, 504 h, visual score after 3 weeks, 100 = complete kill or no germination, read-out: Pre-emergent % control CHEAL; for pest or weed control at 280 ppm: rate 280 ppm. An excerpt: (§2) Seeds of the desired test plant species were planted in a soil matrix prepared by mixing a loam soil (43 percent silt, 19 percent clay, and 38 percent sand, with a pH of about 8.1 and an organic matter content of about 1.5 percent) and sand in a 70 to 30 ratio. The soil matrix was contained in plastic pots with a surface area of 113 square centimeters. When required to ensure good germination and healthy plants, a fungicide treatment and/or other chemical or physical treatment was applied. A weighed amount, determined by the highest rate to be tested, of each test compound was placed in a 20 mL glass vial and was dissolved in 4 mL of a 97:3 v/v (volume/volume) mixture of acetone and dimethyl sulfoxide to obtain concentrated stock solutions. […] The stock solutions obtained were diluted with a 99.9:0.1 mixture of water and Tween® […] surfactant to obtain application solutions of known concentration. The solutions containing the highest concentration to be tested were prepared by diluting 2 mL aliquots of the stock solution with 15 mL of the mixture and lower concentrations were prepared by serial dilution of the stock solution. A 2.5 mL aliquot of each solution of known concentration was sprayed evenly onto the soil surface (113 sq. cm) of each seeded pot using a Cornwall 5.0 mL glass syringe fitted with a TeeJet TN-3 hollow cone nozzle to obtain thorough coverage of the soil in each pot. Control pots were sprayed in the same manner with the aqueous mixture. The treated pots and control pots were placed in a greenhouse maintained with an approximate 15 hr photoperiod and temperatures of about 23-29° C. during the day and 22-28° C. during the night. Nutrients and water were added on a regular basis and supplemental lighting was provided with overhead metal halide 1000-Watt lamps as necessary. The water was added by top-irrigation. After 3 weeks the condition of the test plants that germinated and grew as compared with that of the untreated plants that germinated and grew was determined visually and scored on a scale of 0 to 100 percent where 0 corresponds to no injury and 100 corresponds to complete kill or no germination.

The subject of data set [4] is Corn (#14 3377) (Zea mays). Kind of data set: Postemergence herbicidal activity, selectivity to corn. The format is in vivo. Conditions: crop (corn) selectivity, visual score after 2 weeks, 0 = no injury. The method, then: as §1
For data set [5], the system named is Crabgrass(large) (Digitaria sanguinalis). Nature of the data set: Preemergence herbicidal activity, Crabgrass(large). Conditions: pre-emergence, 504 h, visual score after 3 weeks, 100 = complete kill or no germination, read-out: Pre-emergent % control DIGSA; for pest or weed control at 280 ppm: rate 280 ppm. It is filed as in vivo.
Source text: as §2

Data set [6] deals with Barnyardgrass (Echinochloa crus-galli). Nature of the data set: Postemergence herbicidal activity, Barnyardgrass. It is filed as in vivo. The note with it: post-emergence, 336 h, visual score after 2 weeks, 0 = no injury, 100 = complete kill, read-out: Post-emergent % control ECHCG; for pest or weed control at 250 ppm: rate 250 ppm. The method, then: as §1
Data set [7] concerns Lambsquarter (Chenopodium album). Kind of data set: Postemergence herbicidal activity, Lambsquarter. The format is in vivo. Conditions: post-emergence, 336 h, visual score after 2 weeks, 0 = no injury, 100 = complete kill, read-out: Post-emergent % control CHEAL; for pest or weed control at 250 ppm: rate 250 ppm. The method, then: as §1
Data set [8] deals with Giant Foxtail (Setaria faberi). Nature of the data set: Postemergence herbicidal activity, Giant Foxtail. The note with it: post-emergence, 336 h, visual score after 2 weeks, 0 = no injury, 100 = complete kill, read-out: Post-emergent % control SETFA; for pest or weed control at 250 ppm: rate 250 ppm. The format is in vivo. The procedure: as §1
In data set [9] the test system is Wheat(var.Merica) (Triticum aestivum). Nature of the data set: Postemergence herbicidal activity, selectivity to wheat. The note with it: crop (wheat) selectivity, visual score after 2 weeks, 0 = no injury. The format is in vivo. The method, then: as §1, with “Control plants were sprayed in the same manner with the aqueous mixture. In this test an application rate of 1 ppm results in the application of approximately 1 g/Ha. The treated plants and control plants were placed in a greenhouse as described above and watered by sub-irrigation to prevent wash-off of the test compounds.” left out

Data set [10] deals with Giant Foxtail (Setaria faberi). Nature of the data set: Preemergence herbicidal activity, Giant Foxtail. The note with it: pre-emergence, 504 h, visual score after 3 weeks, 100 = complete kill or no germination, read-out: Pre-emergent % control SETFA; for pest or weed control at 280 ppm: rate 280 ppm. It is filed as in vivo.
Source text: as §2

In data set [11] the test system is Ivyleaf Morningglory (Ipomoea hederacea). Nature of the data set: Preemergence herbicidal activity, Ivyleaf Morningglory. The format is in vivo. The note with it: pre-emergence, 504 h, visual score after 3 weeks, 100 = complete kill or no germination, read-out: Pre-emergent % control IPOHE; for pest or weed control at 280 ppm: rate 280 ppm.
Source text: as §2

As for `CCc1cc(N)c(Cl)c(C(=O)OC)n1` [Compound 4, Methyl 4-amino-3-chloro-6-ethylpyridine-2-carboxylate], in data set [1] (rate 250 ppm), the “Post-emergent % control AMARE” value is recorded as 98%. Further, the pest or weed control at 250 ppm worked out at 95% in data set [2], 0% in [6], 100% in [7] and 0% in data set [8]. Also, the pest or weed control at 280 ppm was 98% in data set [3], 0% in [5], 0% in data set [10] and 100% in data set [11]. Besides, in data set [4] (rate 250 ppm), the “Post-emergent % control ZEAMX” value turned out to be 0%. Moreover, the “Post-emergent % control TRZAS” value in [9] (rate 250 ppm) worked out at 0%.

What is called melting point is the temperature of the solid-liquid transition. Turning to `CCc1cc(N)c(Cl)c(C(=O)O)n1` [Compound 6, 4-Amino-3-chloro-6-ethylpyridine-2-carboxylic acid], the melting point was 140 to 142 °C. The “Post-emergent % control AMARE” value in data set [1] (rate 250 ppm) is given as 100%. Further, in data set [2], the pest or weed control at 250 ppm is 98%. Moreover, the pest or weed control at 280 ppm in data set [3] is 90%. For the same molecule, in data set [4] (rate 250 ppm), the “Post-emergent % control ZEAMX” value amounted to 0%. Also, the pest or weed control at 280 ppm in data set [5] came to 15%. Besides, the pest or weed control at 250 ppm in data set [6] came out at 0%. Further, the pest or weed control at 250 ppm in data set [7] came out at 90%. In addition, the pest or weed control at 250 ppm in [8] worked out at 0%. Moreover, the “Post-emergent % control TRZAS” value in data set [9] (rate 250 ppm) is reported as 0%. Moreover, in [10], the pest or weed control at 280 ppm came out at 0%. Moreover, in [11], the pest or weed control at 280 ppm was found to be 100%.

Turning to `COCc1cc(N)c(Cl)c(C(=O)O)n1` [Compound 9, 4-Amino-3-chloro-6-(methoxymethyl)pyridine-2-carboxylic acid], the “Post-emergent % control AMARE” value in data set [1] (rate 250 ppm) came to 90%. Further, the pest or weed control at 250 ppm in data set [2] was 80%; in data set [6], 0%; in [7], 80%; in [8], 0%. Also, the pest or weed control at 560 ppm in data set [3] (rate 560 ppm) turned out to be 90%; in data set [5] (rate 560 ppm) it was 10%; in data set [10] (rate 560 ppm), 10%; in data set [11] (rate 560 ppm), 50%. In addition, in data set [4] (rate 250 ppm), the “Post-emergent % control ZEAMX” value is 0%.

As for `COC(=O)c1nc(C)c(F)c(N)c1Cl` [Compound 12, Methyl 4-amino-3-chloro-5-fluoro-6-methylpyridine-2-carboxylate], the melting point was in the range of 113 to 114 °C. In data set [2], the pest or weed control at 250 ppm was found to be 100%. Also, the pest or weed control at 140 ppm in data set [3] (rate 140 ppm) was 100%. In addition, the pest or weed control at 140 ppm in data set [5] (rate 140 ppm) worked out at 100%. The pest or weed control at 250 ppm in data set [6] was 80%. Moreover, in data set [7], the pest or weed control at 250 ppm came out at 100%. In [8], the pest or weed control at 250 ppm stood at 95%. In [10] (rate 140 ppm), the pest or weed control at 140 ppm was 98%. Further, the pest or weed control at 140 ppm in data set [11] (rate 140 ppm) is 100%.

As to `COC(=O)c1nc(C)cc(N)c1Cl` [Compound 13, Methyl 4-amino-3-chloro-6-methylpyridine-2-carboxylate], the “Post-emergent % control AMARE” value in data set [1] (rate 254 ppm) is recorded as 90%. The pest or weed control at 573 ppm in [3] (rate 573 ppm) was found to be 100%; in data set [5] (rate 573 ppm) it was 0%; in [10] (rate 573 ppm), 0%; in data set [11] (rate 573 ppm), 90%. Further, the “Post-emergent % control ZEAMX” value in data set [4] (rate 254 ppm) stood at 0%. The pest or weed control at 254 ppm came to 0% in [6] (rate 254 ppm), 70% in [7] (rate 254 ppm) and 0% in data set [8] (rate 254 ppm). Moreover, in [9] (rate 254 ppm), the “Post-emergent % control TRZAS” value stood at 0%.
